Starred links: 1 amine or outer side, 2 acyl side, 3 side chain; linkers in the order of their positions; H or OH if unused. Positions of bridges follow the written chain, without caps; N, C: chain ends. Non-standard residues stand in square brackets, D forms with d. Residues, ends and D or L forms follow the SMILES beside them. *: point of attachment. Orn(4R-OH,5R-OCH2CH2NMe3+) = C[N+](C)(C)CCO[C@@H](N[*:3])[C@H](O)C[C@H](N[*:1])C(=O)[*:2]; pTerphenylCO(4''-OnC5H11) = CCCCCOc1ccc(-c2ccc(-c3ccc(C(=O)*)cc3)cc2)cc1; Orn(4R-OH,5R-OH) = O=C([C@H](C[C@@H](O)[C@@H](O)N[*:3])N[*:1])[*:2]; hTyr(3S-OH,4S-OH) = N[C@H](C(=O)O)[C@H](O)[C@@H](O)c1ccc(O)cc1; Pro(3S-OH,4S-Me) = C[C@H]1CN[C@H](C(=O)O)[C@H]1O; Hyp = O=C(O)[C@@H]1C[C@@H](O)CN1

Results on four molecules are retold here after US11819533B2, “Compositions and methods for the treatment of fungal infections” (Cidara Therapeutics, Inc., priority 2017, dated 2023).

Data set [1] can be described thus: PBS buffer drop test (Example 3). The following applies: 0.50% Tween 80, 0.76% mannitol, 0.125% sodium lactate in 3.5% dextrose solution, pH ~5.5; 2 mg/mL, 0.47 mg/mL in PBS. It is filed as physicochemical. Here is the method:
These solutions were tested for solubility in the PBS drop test, which involved adding the solution dropwise into PBS solution (1:4.3 dilution) and visually observing the resulting solution for any precipitation. PBS buffer serves as a surrogate for plasma, and the PBS drop test is used to evaluate the potential for insolubility as the drug enters the bloodstream at the injection site.

Data set [2] is described as follows: PBS drop test of CD101 IV formulations (Example 4). Format: physicochemical. The note with it: 6 mg/mL in 1.25% Tween 80, 5% mannitol, 0.3% glacial acetic acid, pH ~4.5; 0.25 mL into 1 mL PBS. On the procedure:
Solubility of CD101-containing formulations with different percentages of Tween 80 (also referred to as polysorbate 80) was evaluated in a “PBS drop test.” This involved preparing a known concentration of CD101 in a formulation and injecting the formulation into PBS to visually examine for precipitation. This test was used to assess if a CD101-containing formulation would remain soluble in blood during IV infusions.
(1) 1.25% Tween 80, 5% mannitol, 0.3% glacial acetic acid, pH ˜4.5
(2) 0.50% Tween 80, 0.76% mannitol, 0.125% sodium lactate in 3.5% dextrose solution, pH ˜5.5
Different concentrations of CD101 acetate were prepared in vehicles (1) and (2) and tested for solubility in the PBS drop test.
Add dropwise the formulated solution into PBS solution (1:4 dilution). Visually observe the resulting solution upon addition for any precipitation.

The test system of another data set is Candida auris. The experiment in a line: Candida auris infection in a murine model of disseminated candidiasis. Format: in vivo. The following applies: immunosuppressed CD-1 mice; for Percent survival at the end of the study: day 14, CD101 20 mg/kg IP, fluconazole 20 mg/kg PO, amphotericin B 0.3 mg/kg IP, doses on day 1 and day 4. Here is the method: Female 6-8 week old CD-1 mice were immunosuppressed with cyclophosphamide (200 mg/kg) 3 days prior to infection and 150 mg/kg 1 day post-infection. On the day of infection, mice were inoculated with 3×10^7 C. auris blastospores via the lateral tail vein. Mice were randomized into 5 groups (n=5 for colony forming units (CFU) and n=10 for survival): CD101 20 mg/kg administered by intraperitoneal (IP) injection, fluconazole 20 mg/kg administered per os (PO), amphotericin B 0.3 mg/kg IP, and a vehicle control. Treatments were administered 2 hours post-infection (day 1) and again on day 4 of the study for a total of 2 doses. Mice were monitored daily and a survival curve was generated. CFU groups were sacrificed on day 8 of the study. One kidney was removed from each mouse, homogenized, plated on potato dextrose agar (PDA), and incubated at 35° C. for 2 days to determine CFU. The remaining survival mice were monitored until the end of the study (day 14).

Data set [3] relates to C. albicans SC-5314 biofilms. The data set is described as follows: Activity against adhesion phase biofilms (prevention), XTT and CSLM. The note with it: for CSLM biofilm architecture, adhesion phase / Metabolic activity (XTT) of adhesion phase biofilms compared to untreated: 24 h exposure, CD101 0.25 and 1 μg/ml, fluconazole 1 and 4 μg/ml; for Thickness of biofilms, adhesion phase: CSLM, untreated control 36 μm. Format: cell-based, Candida albicans. On the procedure:
(§1) C. albicans SC-5314 was used for the current study.
(§2) In this study, biofilms were grown in vitro using a biofilm model (Chandra et al., Nature Protocols 3:1909, 2008) and the effect of CD101 on adhesion phase biofilms (representing prevention of biofilms) or mature phase biofilms (representing treatment of biofilms) was determined.
(§3) Biofilms were formed on silicone elastomer (SE) discs using a catheter-associated-biofilm model (Chandra et al., Nature Protocols 3:1909, 2008; Chandra et al., J. Bacteriol. 183: 5385, 2001; Chandra et al., J. Dental Research 80: 903, 2001). For evaluation of activity against adhesion phase biofilms (prevention), Candida cells were adhered to catheter discs for 90 min. […] For evaluation of activity against mature phase biofilms (treatment), Candida cells were adhered to catheter discs for 90 min, then transferred to fresh media and incubated for a further 24 h to allow formation of biofilms. […] Discs incubated with fluconazole or media alone were used as controls in all experiments.
(§4) At the end of drug exposure in both adhesion and mature phase biofilms, biofilms were quantified by measuring their metabolic activity using XTT assay (Chandra et al., Nature Protocols 3:1909, 2008; Chandra et al., J. Bacteriol. 183: 5385, 2001; Chandra et al., J. Dental Research 80: 903, 2001). Following incubation with drugs, discs were transferred to fresh plates containing phosphate buffered saline with XTT and menadione, incubated for 3 h at 37° C. and optical density was read at 492 nm. Separate batches of biofilms were stained with fluorescent dyes (FUN1™, CONA) and observed under Confocal Scanning Laser Microscope (CSLM) to evaluate biofilm architecture and thickness (Chandra et al., Nature Protocols 3:1909, 2008; Chandra et al., J. Bacteriol. 183: 5385, 2001).

For data set [4], the system named is C. albicans SC-5314 biofilms. The data set is described as follows: Activity against mature phase biofilms (treatment), XTT and CSLM. It is filed as cell-based, Candida albicans. The note with it: for CSLM biofilm architecture, mature phase / Metabolic activity (XTT) of mature phase biofilms compared to untreated: 24 h exposure of mature biofilms, CD101 0.25 and 1 μg/ml, fluconazole 1 and 4 μg/ml; for Thickness of biofilms, mature phase: CSLM, untreated control 43 μm. Here is the method:
as §1, §2, §3, §4
Background: Tetrazolium assays rely on reduction of a dye to a coloured formazan, in cell work by metabolically active cells.

For data set [5], the system named is C. albicans SC-5314 biofilms. The data set is described as follows: Time lapse microscopy of biofilm formation. The note with it: followed up to 16 h. Format: cell-based, Candida albicans. The text has this:
The effective CD101 concentration obtained from the above experiments was used to monitor its effect on biofilm formation in real time using TLM, which involves capturing real-time images of a single frame at specific time intervals, allowing temporal monitoring of the interactions occurring between the drug and Candida biofilms. Captured images were combined in a time sequence, resulting in an animation depicting the sequence of events that occurred with the passage of time. Briefly, the discs with C. albicans (adhered for 90 min as above) were placed in a 35-mm-diameter glass-bottom Petri dish (MatTek Corp., Ashland, MA). […] Phase contrast images for this interaction were captured immediately from 0 h and followed up to 16-17 h on a Leica DMI 6000 B inverted microscope connected to a Retiga EXi Aqua camera (Q-imaging Vancouver British Columbia). To determine the structural changes in the maturing biofilm, both acquisition and analysis of a series of horizontal (xy) optical sections of the biofilm was done using Metamorph Imaging software (Molecular Devices, Downington, PA). Disc incubated with media alone was used as control.

For a further data set, the system named is Sprague Dawley rats. The experiment in a line: 14-day repeat-dose intravenous infusion toxicity study. Format: in vivo. On the procedure:
The primary purpose of this study was to evaluate the toxicity of CD101 when administered intravenously as a 20-minute infusion into the lateral tail vein of Sprague Dawley rats for fourteen consecutive days. A positive control group (Eraxis®) with a similar structure and pharmacodynamic activity was included in the study design.
The test article, CD101 acetate, was a white to off-white powder. The test article was prepared into dosing formulations for intravenous dose administration. One hundred experimentally naïve Sprague Dawley rats (50 males and 50 females), a minimum of 8 weeks old and weighing 255-318 grams (males) and 192-215 (females) at the outset of the study were assigned to treatment groups as shown in Table 7 below:
All animals were dosed on Days 1 through 3 inclusive. As a result of tail vein irritation observed among all study groups, dose administration was suspended on Day 4 to allow the tails to recover. Dosing resumed on Day 5 and continued for a maximum of ten additional days (Days 5 through 14 inclusive). Animals that could no longer be dosed during this time remained on study.
Male and female Sprague Dawley rats were to receive CD101 acetate at doses of 0, 2, 6 and 20 mg/kg/day (Groups 1, 3, 4 and 5, respectively) or Eraxis® (the positive control article, Group 2) at a dose of 40 mg/kg/day, intravenously as a 20 minute infusion into the left or right lateral tail vein for fourteen consecutive days. During the first three treatment days, all animals were dosed with the first vehicle used on this study (1.75% Tween 80/5% Dextrose: Groups 1 and 3-5; 5% Dextrose: Group 2). As a result of the localized tail swelling observed during the first three days of treatment, study Day 4 served as a drug-free day to alleviate tail vein irritation. Dose administration resumed on Day 5 using a new vehicle (5% Mannitol/2.5% Tween 80/0.3% acetic acid: Groups 1 and 3-5; 5% Mannitol/0.3% acetic acid: Group 2) for the remainder of the treatment period (Days 5-14). Those animals that could no longer be dosed because of severe vein irritation were retained on study, untreated, until the end of the study (Day 15).

As for `CCCCCOc1ccc(-c2ccc(-c3ccc(C(=O)N[C@H]4C[C@@H](O)[C@@H](OCC[N+](C)(C)C)NC(=O)[C@@H]5[C@@H](O)[C@@H](C)CN5C(=O)[C@H]([C@@H](C)O)NC(=O)[C@H]([C@H](O)[C@@H](O)c5ccc(O)cc5)NC(=O)[C@@H]5C[C@@H](O)CN5C(=O)[C@H]([C@@H](C)O)NC4=O)cc3)cc2)cc1` [CD101] ({pTerphenylCO(4''-OnC5H11)}-[Orn(4R-OH,5R-OCH2CH2NMe3+)]T[Hyp][hTyr(3S-OH,4S-OH)]T[Pro(3S-OH,4S-Me)]; lactam 1-C), the “Appearance upon PBS drop test” value in data set [1] is given as “Clear”. In addition, the “Time the formulated solution remained soluble in PBS” value in data set [2] is “at least 1 hour”. Further, the “Average reduction in kidney CFU compared to fluconazole, amphotericin B and vehicle treated groups” value in the data set on Candida auris (20 mg/kg IP on day 1 and day 4, kidney on day 8) turned out to be 3 log. Further, the “Percent survival at the end of the study” value with Candida auris is reported as 80%. Also, in data set [3], the “CSLM biofilm architecture, adhesion phase” value was “only remnants of adhered cells, and no biofilm maturation”; the “Metabolic activity (XTT) of adhesion phase biofilms compared to untreated” value is reported as “formed significantly less biofilms”; the “Thickness of biofilms, adhesion phase” value is given as 4 μm. Moreover, in data set [4], the “CSLM biofilm architecture, mature phase” value was “eradicated and showed bulged, deformed/broken cells”; the “Metabolic activity (XTT) of mature phase biofilms compared to untreated” value is “significantly less metabolic activity”; the “Thickness of biofilms, mature phase” value was 24 μm. In addition, the “Temporal effect on 3 h formed biofilms (time lapse)” value in data set [5] (0.25 μg/ml added after 3 h biofilm formation) was “remained stunted and failed to grow into mature biofilms”. In addition, the “Temporal effect on formation of biofilms (time lapse)” value in data set [5] (0.25 μg/ml added to cells adhered for 90 min) was “only adhered cells with stunted growth, which failed to grow into mature biofilms”.
Take `CCCCCOc1ccc(-c2ccc(-c3ccc(C(=O)N[C@H]4C[C@@H](O)[C@@H](O)NC(=O)[C@@H]5[C@@H](O)[C@@H](C)CN5C(=O)[C@H]([C@@H](C)O)NC(=O)[C@H]([C@H](O)[C@@H](O)c5ccc(O)cc5)NC(=O)[C@@H]5C[C@@H](O)CN5C(=O)[C@H]([C@@H](C)O)NC4=O)cc3)cc2)cc1` [Eraxis®, Anidulafungin, reference compound] ({pTerphenylCO(4''-OnC5H11)}-[Orn(4R-OH,5R-OH)]T[Hyp][hTyr(3S-OH,4S-OH)]T[Pro(3S-OH,4S-Me)]; lactam 1-C): in the data set on Sprague Dawley rats (Days 1-3, first vehicle (1.75% Tween 80 and 5% Dextrose for CD101 acetate; 5% Dextrose for Eraxis), Eraxis 40 mg/kg/day, CD101 acetate 6 and 20 mg/kg/day, males and females), the “Incidence of tail vein irritation” value is “highest”. The “Vein irritation compared to Groups 1, 3 and 4” value with Sprague Dawley rats (Days 5-14, second vehicle (5% Mannitol, 2.5% Tween 80, 0.3% Acetic Acid for CD101 acetate; 5% Mannitol and 0.3% Acetic Acid for Eraxis), Eraxis 40 mg/kg/day, CD101 acetate 20 mg/kg/day) was “only marginally higher”. For the same molecule, in the data set with Sprague Dawley rats (males, 40 mg/kg/day (Group 2), 20-minute IV infusion, second vehicle 5% Mannitol/0.3% acetic acid), the “Animals dosed for less than the intended ten-day duration (Days 5-14) as a result of tail swelling/lesions” value stood at 30%.
Take `C[C@@H]1[C@H](O)[C@@H](C)/C=C/C=C/C=C/C=C/C=C/C=C/C=C/[C@H](O[C@@H]2O[C@H](C)[C@@H](O)[C@H](N)[C@@H]2O)C[C@@H]2O[C@](O)(C[C@@H](O)C[C@@H](O)[C@H](O)CC[C@@H](O)C[C@@H](O)CC(=O)O[C@H]1C)C[C@H](O)[C@H]2C(=O)O` [amphotericin B, reference compound]: in the data set with Candida auris, the “Percent survival at the end of the study” value worked out at 30%.
With `OC(Cn1cncn1)(Cn1cncn1)c1ccc(F)cc1F` [fluconazole, reference compound], the “Percent survival at the end of the study” value with Candida auris is 0%. Further, in data set [3], the “CSLM biofilm architecture, adhesion phase” value is given as “did not inhibit biofilm formation”; the “Metabolic activity (XTT) of adhesion phase biofilms compared to untreated” value was “did not inhibit biofilm formation”; the “Thickness of biofilms, adhesion phase” value was “no effect on biofilm thickness”. Further, in data set [4], the “CSLM biofilm architecture, mature phase” value is given as “did not affect Candida biofilms”; the “Metabolic activity (XTT) of mature phase biofilms compared to untreated” value was “neither concentrations of fluconazole (1 and 4 μg/ml) affected these biofilms”; the “Thickness of biofilms, mature phase” value is on record as “no effect”.
